Consider ten molecules from ChEMBL document CHEMBL5058564, “EUbOPEN Chemogenomics Library 2 (Incucyte)” (2022).

What all share (type): toxicity, cell-based
One data set relates to HEK-293T. The experiment in a line: Incucyte cell viability with HEK293T. The settings on record: human, 10 µM, compound concentration 10 uM.
A further data set has as its system U2OS. The experiment in a line: Incucyte cell viability with U2OS. Conditions: human, 10 µM, compound concentration 10 uM.
In the next data set the test system is Fibroblast. The experiment in a line: Incucyte cell viability with human fibroblast. The settings on record: 10 µM, compound concentration 10 uM.
Setting [1] is: 0 h, replicate number 1, timepoint 0 hours.
[2] abbreviates: 0 h, replicate number 2, timepoint 0 hours.
The mark [3] stands for this setting: 6 h, replicate number 1, timepoint 6 hours.
Setting [4] is: 12 h, replicate number 1, timepoint 12 hours.
Where [5] appears, read: 12 h, replicate number 2, timepoint 12 hours.
[6] abbreviates: 18 h, replicate number 1, timepoint 18 hours.
Where [7] appears, read: 18 h, replicate number 2, timepoint 18 hours.
Setting [8] is: 24 h, replicate number 1, timepoint 24 hours.
Setting [9] is: 24 h, replicate number 2, timepoint 24 hours.
Setting [10] is: 6 h, replicate number 2, timepoint 6 hours.
Note: unitless GR value; below 1 slowed growth and below 0 cell loss.

`Br.Br.c1ncc(CC2CCNCC2)[nH]1`: the “Growth Rate” value stood at 0.53 in the data set on HEK-293T (setting [1]); 0.07 with HEK-293T (setting [2]); 0.8 in the data set on HEK-293T (setting [3]); 0.99 with HEK-293T (setting [4]); 0.73 in the data set with HEK-293T (setting [5]); 0.81 in the data set with HEK-293T (setting [6]). The “Growth Rate” value in the data set on HEK-293T (setting [7]) came out at 0.93; in the data set with HEK-293T (setting [8]), 0.95; with HEK-293T (setting [9]) it was 0.94; in the data set with U2OS (setting [1]), 0.94; in the data set on U2OS (setting [3]), 0.57; with U2OS (setting [4]), 0.9. The “Growth Rate” value is listed as 0.49 in the data set with Fibroblast (setting [1]); 0.06 in the data set on Fibroblast (setting [2]); 0.88 in the data set on Fibroblast (setting [3]); 0.53 in the data set on Fibroblast (setting [10]); 0.69 in the data set with Fibroblast (setting [4]); 0.81 with Fibroblast (setting [5]). Besides, the “Growth Rate” value with Fibroblast (setting [6]) was found to be 0.72; with Fibroblast (setting [7]), 0.93; with Fibroblast (setting [8]), 0.77; with Fibroblast (setting [9]), 0.76.
`COc1ccc2nc3ccc(OC)cc3c(SCCCN)c2c1.Cl`: the “Growth Rate” value in the data set on HEK-293T (setting [1]) is on record as -0.05; in the data set with HEK-293T (setting [2]), -0.25; in the data set on HEK-293T (setting [3]) it was -0.57; in the data set with HEK-293T (setting [10]), 0.26; in the data set on HEK-293T (setting [4]), -0.16; in the data set on HEK-293T (setting [5]), 0.33. Further, the “Growth Rate” value with HEK-293T (setting [6]) is given as 0.19; in the data set with HEK-293T (setting [7]) it was 0.22; in the data set on HEK-293T (setting [8]) it was 0.28; with HEK-293T (setting [9]), 0.19; in the data set on U2OS (setting [1]), -0.75; in the data set with U2OS (setting [2]) it was -0.3. Besides, the “Growth Rate” value in the data set with U2OS (setting [4]) turned out to be 0.7; in the data set with U2OS (setting [5]) it was 0.2; in the data set with U2OS (setting [6]), 0.19; in the data set with U2OS (setting [7]), 0.16; in the data set on U2OS (setting [8]) it was 0.14; in the data set with U2OS (setting [9]), 0.21. Moreover, the “Growth Rate” value in the data set with Fibroblast (setting [1]) came to 0.15; in the data set with Fibroblast (setting [2]), 0.39; in the data set with Fibroblast (setting [3]), 0.94.
As for `O=c1ccn([C@@H]2O[C@H](COP(=O)([O-])OP(=O)([O-])OP(=O)([O-])OP(=O)([O-])OC[C@H]3O[C@@H](n4ccc(=O)[nH]c4=O)[C@H](O)[C@@H]3O)[C@@H](O)[C@H]2O)c(=O)[nH]1.[Na+].[Na+].[Na+].[Na+]` [DIQUAFOSOL TETRASODIUM], the “Growth Rate” value in the data set on HEK-293T (setting [1]) turned out to be 0.43; with HEK-293T (setting [2]) it was 0.4; with HEK-293T (setting [3]), 0.69; in the data set with HEK-293T (setting [10]), 0.63; in the data set on HEK-293T (setting [4]), 0.73; in the data set on HEK-293T (setting [6]), 0.72. Also, the “Growth Rate” value with HEK-293T (setting [8]) is 0.85; with HEK-293T (setting [9]), 0.81; in the data set on U2OS (setting [1]) it was -0.05; in the data set with U2OS (setting [3]) it was 0.17; in the data set on U2OS (setting [4]), 0.47; with U2OS (setting [6]), 0.88. The “Growth Rate” value in the data set on U2OS (setting [7]) stood at 0.92; with U2OS (setting [8]), 0.93; in the data set with Fibroblast (setting [1]) it was 0.39; in the data set with Fibroblast (setting [10]), 0.61; in the data set with Fibroblast (setting [8]), 0.89.
Regarding `CNC(=O)c1nn(C)c2c1C(C)(C)Cc1cnc(Nc3ccc(N4CCN(C)CC4)cc3)nc1-2` [MILCICLIB], the “Growth Rate” value in the data set with HEK-293T (setting [3]) is given as -0.57; with HEK-293T (setting [10]), -0.72; with HEK-293T (setting [4]), -0.22; in the data set on HEK-293T (setting [5]), -0.34; with HEK-293T (setting [6]), -0.12; in the data set on HEK-293T (setting [7]) it was -0.15. The “Growth Rate” value in the data set with HEK-293T (setting [8]) is given as -0.02; with HEK-293T (setting [9]), -0.01; in the data set on U2OS (setting [1]), -0.33; in the data set with U2OS (setting [3]), 0.35; in the data set on U2OS (setting [10]) it was 0.23; in the data set on U2OS (setting [4]) it was 0.17. Further, the “Growth Rate” value is on record as 0.29 with U2OS (setting [5]); 0.23 with U2OS (setting [6]); 0.38 with U2OS (setting [7]); 0.21 with U2OS (setting [8]); 0.25 in the data set with U2OS (setting [9]); 1 in the data set on Fibroblast (setting [2]). The “Growth Rate” value in the data set on Fibroblast (setting [3]) is recorded as -0.13; in the data set on Fibroblast (setting [10]), -0.21; in the data set on Fibroblast (setting [4]), -0.1; with Fibroblast (setting [5]) it was -0.07; in the data set on Fibroblast (setting [6]) it was 0.24; in the data set on Fibroblast (setting [7]), 0.23. In addition, the “Growth Rate” value in the data set with Fibroblast (setting [8]) worked out at 0.34; with Fibroblast (setting [9]), 0.33.
With `O=C(O)CCc1ccc(NCc2cccc(Oc3ccccc3)c2)cc1` [GW9508], the “Growth Rate” value in the data set on HEK-293T (setting [2]) turned out to be 0.79; in the data set on HEK-293T (setting [8]), 0.98; in the data set on U2OS (setting [2]), 0.8; with U2OS (setting [10]), 0.91; in the data set on U2OS (setting [4]), 1; with U2OS (setting [7]), 0.97. Besides, the “Growth Rate” value with Fibroblast (setting [1]) was -0.2; in the data set on Fibroblast (setting [2]), 0.43; in the data set with Fibroblast (setting [4]), 1.
Consider `Cc1cc(Cn2cnc3c2C[C@@H](C(=O)O)N(C(=O)C(c2ccccc2)c2ccccc2)C3)ccc1N(C)C`, for which the “Growth Rate” value in the data set with HEK-293T (setting [3]) was 0.56; with HEK-293T (setting [10]), 0.61; with HEK-293T (setting [4]), 0.72; with HEK-293T (setting [5]), 0.75; with HEK-293T (setting [6]), 0.7; in the data set with HEK-293T (setting [7]), 0.99. Besides, the “Growth Rate” value in the data set with HEK-293T (setting [8]) was 0.85; with U2OS (setting [2]) it was 0.34; in the data set with U2OS (setting [9]), 0.97; in the data set with Fibroblast (setting [1]), 0.15; in the data set with Fibroblast (setting [3]), 0.22; in the data set with Fibroblast (setting [6]), 0.53. Also, the “Growth Rate” value in the data set on Fibroblast (setting [7]) is reported as 0.97; in the data set on Fibroblast (setting [8]), 0.39; in the data set with Fibroblast (setting [9]), 0.88.
Consider `Cn1cc(C(=O)OCC2CCN(CCNS(C)(=O)=O)CC2)c2ccccc21`, for which the “Growth Rate” value in the data set on HEK-293T (setting [3]) is 0.81; in the data set on HEK-293T (setting [4]), 0.43; in the data set with HEK-293T (setting [6]), 0.29; in the data set with HEK-293T (setting [8]), 0.35; in the data set on HEK-293T (setting [9]) it was 0.96; in the data set with U2OS (setting [10]), 0.45. For the same molecule, the “Growth Rate” value in the data set on U2OS (setting [5]) is listed as 0.95; with U2OS (setting [7]), 0.89; in the data set on Fibroblast (setting [1]) it was 0.81; with Fibroblast (setting [3]) it was -0.25; in the data set with Fibroblast (setting [4]), 0.1; with Fibroblast (setting [5]), 0.4. For the same molecule, the “Growth Rate” value worked out at 0.33 in the data set with Fibroblast (setting [6]), 0.43 in the data set with Fibroblast (setting [8]) and 0.82 with Fibroblast (setting [9]).
Consider `NC(N)=Nc1nc(CSCCC(N)=NS(N)(=O)=O)cs1` [FAMOTIDINE], for which the “Growth Rate” value is listed as 0.72 in the data set with HEK-293T (setting [3]); 0.45 in the data set with HEK-293T (setting [10]); 0.65 in the data set with HEK-293T (setting [4]); 0.89 in the data set on HEK-293T (setting [7]); 0.96 in the data set with HEK-293T (setting [8]); -1 in the data set on U2OS (setting [2]). Also, the “Growth Rate” value in the data set with U2OS (setting [3]) is 0.18; in the data set with Fibroblast (setting [1]) it was 0.55; with Fibroblast (setting [2]), 0.42; in the data set on Fibroblast (setting [10]), 0.22; with Fibroblast (setting [4]), 0.41; in the data set on Fibroblast (setting [5]) it was 0.17. Moreover, the results for the “Growth Rate” value in the data set with Fibroblast (setting [7]) and in the data set with Fibroblast (setting [9]) were 0.4 and 0.89, respectively.
Turning to `O=C(NCc1ccc(F)cc1)N1CCN2C(=O)OC(c3ccccc3)(c3ccccc3)C2C1` (stereo unspecified), the “Growth Rate” value in the data set with HEK-293T (setting [3]) amounted to 0.88; in the data set on HEK-293T (setting [6]) it was 1; in the data set on HEK-293T (setting [8]), 0.92; in the data set on U2OS (setting [3]) it was 0.37; in the data set with U2OS (setting [10]) it was 0.99; with U2OS (setting [7]) it was 0.99. The “Growth Rate” value with U2OS (setting [9]) is listed as 0.97; in the data set with Fibroblast (setting [1]), -0.48; in the data set with Fibroblast (setting [2]), 0.83; with Fibroblast (setting [10]) it was 0.42; with Fibroblast (setting [8]) it was 0.67.
With `Cc1cnc(CNCC2(F)CCN(C(=O)c3ccc(F)c(Cl)c3)CC2)nc1`, the “Growth Rate” value was 0.4 in the data set with HEK-293T (setting [1]); 0.21 in the data set on HEK-293T (setting [2]); 1 with HEK-293T (setting [6]); 0.91 with HEK-293T (setting [8]); -0.59 in the data set with U2OS (setting [1]); 0.21 in the data set with U2OS (setting [2]). In addition, the “Growth Rate” value with U2OS (setting [3]) is given as 0.35; with U2OS (setting [10]) it was 0.86; in the data set on U2OS (setting [4]) it was 0.56; with U2OS (setting [5]), 0.96; in the data set with U2OS (setting [6]), 0.81; in the data set on U2OS (setting [7]), 0.78. In addition, the “Growth Rate” value in the data set with U2OS (setting [8]) is 0.79; with U2OS (setting [9]), 0.94; with Fibroblast (setting [1]), 0.31; in the data set with Fibroblast (setting [2]), 0.71; with Fibroblast (setting [3]) it was 0.38; in the data set on Fibroblast (setting [4]), 0.81. In addition, the “Growth Rate” value in the data set on Fibroblast (setting [5]) is 0.62; with Fibroblast (setting [6]) it was 0.86; in the data set with Fibroblast (setting [8]) it was 0.5.
